SMILES	logP
O=C(O)CSC1=NS(=O)(=O)c2cc(Br)ccc2N1	0.92
O=C(O)CSC1=NS(=O)(=O)c2ccc(Cl)cc2N1	0.82
O=C(O)CCSC1=NS(=O)(=O)c2ccccc2N1	0.66
O=C(O)CCC1=NS(=O)(=O)c2ccc(C(F)(F)F)cc2N1	1.3
COc1ccc2c(c1)NC(CCC(=O)O)=NS2(=O)=O	0.18
O=C(O)CCSC1=NS(=O)(=O)c2cc(Cl)ccc2N1	1.43
O=C(O)CCC1=NS(=O)(=O)c2ccc(Cl)cc2N1	0.72
O=C(O)CCSC1=NS(=O)(=O)c2cc(Cl)c(Cl)cc2N1	1.81
O=C(O)CSC1=NS(=O)(=O)c2cc(Cl)cc(Cl)c2N1	1.09
O=C(O)CSC1=NS(=O)(=O)c2cc(Br)cc(Br)c2N1	1.16
O=C(O)CCCC1=NS(=O)(=O)c2cc(Cl)c(Cl)cc2N1	1.8
O=C(O)CSC1=NS(=O)(=O)c2ccc(C(F)(F)F)cc2N1	1.62
O=C(O)CCSC1=NS(=O)(=O)c2ccc(C(F)(F)F)cc2N1	1.96
O=C(O)CCC1=NS(=O)(=O)c2ccccc2N1	-0.18
COc1ccc2c(c1)NC(SCCC(=O)O)=NS2(=O)=O	0.96
O=C(O)CCCC1=NS(=O)(=O)c2cc(Cl)ccc2N1	0.83
O=C(O)CCCC1=NS(=O)(=O)c2cc(Cl)cc(Cl)c2N1	1.22
Cc1ccc2c(c1)NC(CCC(=O)O)=NS2(=O)=O	0.16
O=C(O)CCC1=NS(=O)(=O)c2cc(Cl)c(Cl)cc2N1	1.5
O=C(O)CCSC1=NS(=O)(=O)c2cc(Cl)cc(Cl)c2N1	1.79

SMILES	logP
O=C(O)CCSC1=NS(=O)(=O)c2cc(Br)cc(Br)c2N1	2.04
Cc1ccc2c(c1)NC(CCCC(=O)O)=NS2(=O)=O	0.33
O=C(O)CSC1=NS(=O)(=O)c2ccccc2N1	0.18
Cc1ccc2c(c1)NC(SCCC(=O)O)=NS2(=O)=O	1.16
COc1ccc2c(c1)NC(CCCC(=O)O)=NS2(=O)=O	0.12
O=C(O)CCC1=NS(=O)(=O)c2cc(Cl)cc(Cl)c2N1	1.04
O=C(O)CSC1=NS(=O)(=O)c2cc(Cl)ccc2N1	0.72
O=C(O)CCCC1=NS(=O)(=O)c2cc(Br)cc(Br)c2N1	1.51
COc1ccc2c(c1)NC(SCC(=O)O)=NS2(=O)=O	0.37
O=C(O)CCC1=NS(=O)(=O)c2cc(Cl)ccc2N1	0.69
O=C(O)CCSC1=NS(=O)(=O)c2cc(Br)ccc2N1	1.77
Cc1ccc2c(c1)NC(SCC(=O)O)=NS2(=O)=O	0.7
O=C(O)CCCC1=NS(=O)(=O)c2cc(Br)ccc2N1	1.02
O=C(O)CCCC1=NS(=O)(=O)c2ccc(C(F)(F)F)cc2N1	1.24
O=C(O)CSC1=NS(=O)(=O)c2ccc(Cl)c(Cl)c2N1	1.1
O=C(O)CCSC1=NS(=O)(=O)c2ccc(Cl)cc2N1	1.6
O=C(O)CCC1=NS(=O)(=O)c2cc(Br)cc(Br)c2N1	1.35
O=C(O)CCCC1=NS(=O)(=O)c2ccc(Cl)cc2N1	0.83
O=C(O)CCC1=NS(=O)(=O)c2cc(Br)ccc2N1	0.93
